Test results from patent US4760136A, “Chartreusin derivatives and salts thereof” (Ishihara Sangyo Kaisha, Ltd., priority 1984, dated 1988).

Tests used:
P-388 leukemia cells = assay: Antitumor activity: P-388 leukemia cells inoculated intraperitoneally, drug administered intravenously, BDF1 mice; assay type: in vivo; conditions: Mus musculus, P388, iv, BDF1 mice, P-388 i.p., read-out: T/C (%) of MST; for response vs control in vivo at 20 mg/kg: dose b: 20 mg/kg × 3, i.v. on days 1, 5 and 9; for response vs control in vivo at 40 mg/kg: dose c: 40 mg/kg × 3, i.v. on days 1, 5 and 9; for response vs control in vivo at 80 mg/kg: dose f: 80 mg/kg × 3, i.v. on days 1, 5 and 9; for response vs control in vivo at 60 mg/kg: dose e: 60 mg/kg × 3, i.v. on days 1, 5 and 9
Procedure, shortened: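 Drug dosing was intravenous on the first, fifth and ninth days after intraperitoneal inoculation of P-388 leukemia cells (1×10^6 per mouse) into BDF1 mice. Vehicles were physiological saline alone, or saline with small amounts of sodium carboxymethyl cellulose or Tween-80.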

[1] = Acute toxicity, intravenous (once), ddY mice; assay type: in vivo; conditions: mouse, in vivo, iv, formulated per Preparation Example
Description: In Table 7 are shown acute toxicity values (LD50, mg/kg) in ddY mice in the case of intravenously administering (once) each of the compounds of this invention in the form of preparations shown in the Preparation Examples shown in Table 7.

| SMILES | response vs control in vivo at 20 mg/kg (P-388 leukemia cells) [%] | response vs control in vivo at 40 mg/kg (P-388 leukemia cells) [%] | LD50 [1] [mg/kg] | response vs control in vivo at 10 mg/kg (P-388 leukemia cells; dose a: 10 mg/kg × 3, i.v. on days 1, 5 and 9) [%] | response vs control in vivo at 80 mg/kg (P-388 leukemia cells) [%] | response vs control in vivo at 60 mg/kg (P-388 leukemia cells) [%] |
| --- | --- | --- | --- | --- | --- | --- |
| COC1C(O)C(C)OC(OC2C(Oc3cccc4c(OC(=O)CCNC(=O)CNC(=O)OCc5ccccc5)c5c(=O)oc6ccc(C)c7c(=O)oc(c34)c5c67)OC(C)C3OC(c4cccc(F)c4)OC32)C1O (stereo not shown) [Compound No. 61] | 176 | 220 | ≥ 40 | – | – | – |
| COc1ccc(C2OC3C(C)OC(Oc4cccc5c(OC(=O)CCNC(=O)c6ccccc6)c6c(=O)oc7ccc(C)c8c(=O)oc(c45)c6c78)C(OC4OC(C)C(O)C(OC)C4O)C3O2)cc1 (stereo not shown) [compound 96] | – | 162 | ≥ 40 | – | – | – |
| COC1C(O)C(C)OC(OC2C(Oc3cccc4c(OC(=O)CCN5CCOCC5)c5c(=O)oc6ccc(C)c7c(=O)oc(c34)c5c67)OC(C)C3OC(c4ccccc4)OC32)C1O (stereo not shown) [compound 32] | 186 | – | ≥ 40 | 146 | – | – |
| COC1C(O)C(C)OC(OC2C(Oc3cccc4c(OC(=O)C(C)OCc5ccccc5)c5c(=O)oc6ccc(C)c7c(=O)oc(c34)c5c67)OC(C)C3OC(c4ccccc4)OC32)C1O (stereo not shown) [Compound No. 151] | 155 | 224 | ≥ 40 | – | – | – |
| COC1C(O)C(C)OC(OC2C(Oc3cccc4c(OC(=O)C(NC(=O)OCc5ccccc5)C(C)C)c5c(=O)oc6ccc(C)c7c(=O)oc(c34)c5c67)OC(C)C3OC(c4ccccc4)OC32)C1O (stereo not shown) [compound 106] | 173 | – | ≥ 40 | – | – | – |
| CO[C@H]1[C@@H](O)[C@@H](C)O[C@H](O[C@H]2[C@H](Oc3cccc4c(OC(=O)CCCl)c5c(=O)oc6ccc(C)c7c(=O)oc(c34)c5c67)O[C@H](C)[C@@H]3OC(c4ccccc4F)O[C@@H]32)[C@@H]1O (stereo partly shown) [compound 210] | – | 186 | ≥ 60 | – | – | – |
| CO[C@H]1[C@@H](O)[C@@H](C)O[C@H](O[C@H]2[C@H](Oc3cccc4c(OC(=O)c5ccc(C(F)(F)F)cc5)c5c(=O)oc6ccc(C)c7c(=O)oc(c34)c5c67)O[C@H](C)[C@@H]3OC(C)(C)O[C@@H]32)[C@@H]1O [Compound No. 182] | – | 153 | ≥ 80 | – | 192 | – |
| CCC(C)C(=O)Oc1c2cccc(OC3OC(C)C4OC5(CCCCC5)OC4C3OC3OC(C)C(O)C(OC)C3O)c2c2oc(=O)c3c(C)ccc4oc(=O)c1c2c43 (stereo not shown) [compound 241] | – | – | ≥ 80 | – | 135 | – |
| C/C=C(\C)C(=O)Oc1c2cccc(OC3OC(C)C4OC(C)(C)OC4C3OC3OC(C)C(O)C(OC)C3O)c2c2oc(=O)c3c(C)ccc4oc(=O)c1c2c43 (stereo not shown) [Compound No. 173] | – | 152 | ≥ 80 | – | 192 | – |
| COC1C(O)C(C)OC(OC2C(Oc3cccc4c(OC(=O)CCCO)c5c(=O)oc6ccc(C)c7c(=O)oc(c34)c5c67)OC(C)C3OC(c4ccccc4)OC32)C1O (stereo not shown) [Compound No. 147, 6-O-(4-Hydroxy-n-Butyryl)-3',4'-O-Benzylidene-Chartreusin] | 214 | – | ≥ 40 | – | – | – |
| C=CCCC(=O)Oc1c2cccc(OC3OC(C)C4OC(c5cccc([N+](=O)[O-])c5)OC4C3OC3OC(C)C(O)C(OC)C3O)c2c2oc(=O)c3c(C)ccc4oc(=O)c1c2c43 (stereo not shown) [Compound No. 160] | – | 160 | ≥ 80 | – | 218 | – |
| COC1C(O)C(C)OC(OC2C(Oc3cccc4c(OC(=O)CCNC(=O)c5ccccc5)c5c(=O)oc6ccc(C)c7c(=O)oc(c34)c5c67)OC(C)C3OC(C)(C)OC32)C1O (stereo not shown) [Compound No. 50] | – | – | ≥ 100 | – | – | 155 |
| C#CCCC(=O)Oc1c2cccc(O[C@@H]3O[C@H](C)[C@@H]4OC(C)(C)O[C@@H]4[C@H]3O[C@H]3O[C@H](C)[C@H](O)[C@H](OC)[C@H]3O)c2c2oc(=O)c3c(C)ccc4oc(=O)c1c2c43 [compound 201] | – | 162 | ≥ 60 | – | – | – |
| CCCCC(CC)C(=O)Oc1c2cccc(OC3OC(C)C4OC(C)(C)OC4C3OC3OC(C)C(O)C(OC)C3O)c2c2oc(=O)c3c(C)ccc4oc(=O)c1c2c43 (stereo not shown) [compound 239] | – | – | ≥ 60 | – | – | 153 |
